The values that follow come from patent US6730699B2, “Water soluble paclitaxel derivatives” (priority 2001, dated 2004).

Where two headings read alike, the source gives them in different places.

The test system of data set [1] is rat mammary tumor cell line 13762F. Nature of the data set: Plating efficiency assay, 13762F cells. It counts as cell-based. The following applies: 144 h, read-out: IC50 (50% inhibition of colony formation), 6 days of continuous exposure, approximate.
Data set [2] can be described thus: in vivo. The settings on record: female, C3Hf/Kam, mouse, iv.
Data set [3] is described as follows: Acute toxicity in 13762F tumor-bearing Fischer rats.
In data set [4] the test system is ovarian OCa-l carcinoma.
In data set [5] the test system is SKOV3ipl human ovarian cancer cell line. Description: Human ovarian cancer i.p. in nude mice.
Setting [6] is: 47 mg eq./kg + 14 Gy 24 h after PG-TXL.
The mark [7] stands for this setting: 80 mg eq./kg + 14 Gy 24 h after PG-TXL.
Where [8] appears, read: 120 mg eq/kg + 14 Gy 24 h after PG-TXL.
Setting [9] is: 120 mg eq/kg + 14 Gy 24 h prior to PG-TXL.

In the case of `CC(=O)O[C@H]1C(=O)[C@@]2(C)[C@H]([C@H](OC(=O)c3ccccc3)[C@]3(O)C[C@H](OC(=O)[C@H](O)[C@@H](NC(=O)c4ccccc4)c4ccccc4)C(C)=C1C3(C)C)[C@]1(OC(C)=O)CO[C@@H]1C[C@@H]2O` [Paclitaxel, paclitaxel], in data set [1], the IC50 is approximately 2 nM. In data set [2], this molecule yielded an MTD at 2 wk of 80 mg/kg. Moreover, in data set [3] (20 mg/kg single i.v.), the “# of Toxic Death” value is listed as 0/5, the “Body Weight Loss in %” value amounted to 17.0% and the “Time at Nadir” value worked out at 5 days. Besides, in data set [3] (40 mg/kg single i.v.), the “# of Toxic Death” value is 0/3, the “Body Weight Loss in %” value stood at 17.9%, the “Time at Nadir” value came to 6 days and the “Time of Full Recovery” value is listed as 16 days. Further, in data set [3] (60 mg/kg single i.v.), the “# of Toxic Death” value is on record as 1/4, the “Body Weight Loss in %” value was determined as 16.7%, the “Time at Nadir” value is recorded as 6 days and the “Time of Full Recovery” value was 15 days. Further, the MTD at 2 wk in data set [3] (female, Fischer 344, rat, in vivo) was less than 20 mg/kg.
Consider Poly-Glutamic Acid-Paclitaxel [PG-TXL], for which the “Absolute growth delay” value came out at 18.2 days in data set [4] (setting [6]); 2.7 days in data set [4] (47 mg eq./kg, no radiation); 45.6 days in data set [4] (setting [7]); 8.1 days in data set [4] (80 mg eq./kg, no radiation); 98.4 days in data set [4] (setting [8]); 100.5 days in data set [4] (setting [9]). In addition, the “Absolute growth delay” value in data set [4] (120 mg eq/kg, no radiation) was 12.5 days. Besides, the “Days for tumor to grow from 8-14 mm (means ± SD)” value in data set [4] (setting [6]) was found to be 35.3 ± 4.7 days; in data set [4] (47 mg eq./kg, no radiation) it was 19.8 ± 0.98 days; in data set [4] (setting [7]), 62 ± 4.6 days; in data set [4] (80 mg eq./kg, no radiation) it was 25.3 ± 3.9 days; in data set [4] (120 mg eq/kg + 14 Gy 24 h after PG-TXL, regrown tumors only), 115 ± 3 days; in data set [4] (120 mg eq/kg + 14 Gy 24 h prior to PG-TXL, regrown tumors only) it was 117 ± 1.2 days. Besides, the “Days for tumor to grow from 8-14 mm (means ± SD)” value in data set [4] (120 mg eq/kg, no radiation) amounted to 29.7 ± 3.2 days. In addition, the “Normalized growth delay (means ± SD)” value in data set [4] (setting [6]) came to 15.5 ± 4.7 days; in data set [4] (setting [7]) it was 37.5 ± 4.6 days; in data set [4] (setting [8]), 85.9 ± 3.0 days; in data set [4] (setting [9]) it was 88 ± 1.2 days. Further, the “Ascites (incidence/mice with tumor)” value in data set [5] (120 mg/kg, three injections) is 3/7; in data set [5] (160 mg/kg, single dose), 0/3. Further, the “Mean vol of ascites (s.d.)” value in data set [5] (120 mg/kg, three injections) amounted to 2.7 ± 1.4 mL. In data set [5] (120 mg/kg, three injections), the “Tumor take (incidence of tumor/mice injected)” value is recorded as 7/8. The “mice killed by a single injection” value in data set [5] (160 mg/kg i.v., nude mice) is listed as 5 of the 10. The “Body Weight Loss in %” value in data set [3] (40 mg/kg single i.v.) is on record as 11.1%; in data set [3] (60 mg/kg single i.v.), 15.7%. The entries for the “Time at Nadir” value in data set [3] (40 mg/kg single i.v.) and in data set [3] (60 mg/kg single i.v.) were 6 days and 7 days, respectively. In addition, the “Time of Full Recovery” value in data set [3] (40 mg/kg single i.v.) was 11 days; in data set [3] (60 mg/kg single i.v.), 14 days.
